One assay has as its target T1, human 5-HT1A receptor (Homo sapiens, UniProt P08908).
T1 construct: expressed in transfected cells
T1 sequence (P08908 1-422): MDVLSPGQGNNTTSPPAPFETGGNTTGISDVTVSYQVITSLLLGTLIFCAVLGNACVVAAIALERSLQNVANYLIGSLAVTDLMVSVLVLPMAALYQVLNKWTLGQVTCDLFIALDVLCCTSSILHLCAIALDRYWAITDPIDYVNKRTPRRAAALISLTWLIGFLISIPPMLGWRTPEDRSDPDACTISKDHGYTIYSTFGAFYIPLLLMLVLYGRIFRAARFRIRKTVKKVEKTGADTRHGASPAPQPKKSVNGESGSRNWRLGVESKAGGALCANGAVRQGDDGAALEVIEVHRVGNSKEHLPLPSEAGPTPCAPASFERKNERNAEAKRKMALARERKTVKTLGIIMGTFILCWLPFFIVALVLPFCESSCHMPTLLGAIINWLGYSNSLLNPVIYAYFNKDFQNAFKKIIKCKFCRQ
Kind of assay: [3H]8-OH-DPAT competition binding to cloned human 5-HT1A receptor (CHO cell membranes). The note with it: [3H]8-OH-DPAT 1.5 nM; CHO cells expressing human 5-HT1A.

The target of another assay is T2, serotonin transporter (Rattus norvegicus, UniProt P31652).
T2 construct: frontal cortical membranes prepared from male Sprague-Dawley rats; from tissue; host or cells: frontal cortical membranes of male Sprague-Dawley rats
As to the kind of experiment: 3H-paroxetine binding to serotonin transporter in rat frontal cortical membranes. Further details: species or system male Sprague-Dawley rats.

Broadly, the Ki is a measure of affinity in units of concentration, obtained from inhibition or displacement. Lower therefore signals a stronger hold on the target.

T2 sequence (P31652 whole entry): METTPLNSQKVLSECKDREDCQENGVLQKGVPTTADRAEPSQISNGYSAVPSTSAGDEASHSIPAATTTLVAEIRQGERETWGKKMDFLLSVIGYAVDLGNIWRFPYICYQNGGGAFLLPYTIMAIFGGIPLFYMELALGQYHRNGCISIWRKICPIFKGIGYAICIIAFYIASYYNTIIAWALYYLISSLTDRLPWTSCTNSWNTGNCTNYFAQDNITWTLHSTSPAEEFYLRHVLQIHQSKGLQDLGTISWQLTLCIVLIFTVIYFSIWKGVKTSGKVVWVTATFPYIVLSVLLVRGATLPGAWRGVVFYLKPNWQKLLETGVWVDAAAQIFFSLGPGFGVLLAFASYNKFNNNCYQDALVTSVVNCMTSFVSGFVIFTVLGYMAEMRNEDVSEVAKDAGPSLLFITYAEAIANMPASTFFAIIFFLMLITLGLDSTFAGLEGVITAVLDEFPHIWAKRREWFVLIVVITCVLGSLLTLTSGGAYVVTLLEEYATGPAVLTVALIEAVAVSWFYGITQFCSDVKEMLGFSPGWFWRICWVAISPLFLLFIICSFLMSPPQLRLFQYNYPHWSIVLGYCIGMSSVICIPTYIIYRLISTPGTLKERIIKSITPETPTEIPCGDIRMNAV
Protocol for human 5-HT1A receptor: A stable Chinese hamster ovary cell line expressing the human 5-HT1A receptor subtype (5H-HT1A .CHO cells) was employed throughout this procedure. Cells were maintained in DMEM supplemented with 10% fetal calf serum, non-essential amino acids and penicillin/ streptomycin.
Cells were grown to 95-100% confluency as a monolayer before membranes were harvested for binding studies. Cells were gently scraped from the culture plates, transferred to centrifuge tubes, and washed twice by centrifugation (at 2000 rpm for 10 min., 4° C.) in buffer (50 mM Tris; pH 7.5). The resulting pellets were aliquoted and stored at -80° C. until needed. On the day of assay, the cells were thawed on ice, and resuspended in buffer. Studies were conducted using [^3 H]8-OH-DPAT as the radioligand. The binding assay was performed in 96 well microtiter plates in a final total volume of 250 μL of buffer. […] Non-specific binding was determined in the presence of 10 μM 5HT. Saturation analysis was conducted by using [^3 H]8-OH-DPAT at concentrations ranging from 0.3-30 nM. Following a 30 minute incubation at room temperature, the reaction was terminated by the addition of ice cold buffer and rapid filtration using a M-96 Brandel Cell Harvester through a GF/B filter presoaked for 30 minutes in 0.5% polyethyleneimine.
Protocol for serotonin transporter: Briefly, frontal cortical membranes prepared from male Sprague-Dawley rats were incubated with ^3 H-paroxetine (0.1 nM) for 60 min at 25° C. All tubes also contained either vehicle, test compound (one to eight concentrations), or a saturating concentration of fluoxetine (10 μM) to define specific binding. All reactions were terminated by the addition of ice cold Tris buffer followed by rapid filtration using a Tom Tech filtration device to separate bound from free ^3 H-paroxetine.

Take `c1ccc(CN2CC(CNCCCCc3c[nH]c4ccccc34)Oc3ccccc32)cc1` (centres unmarked) [Example 4, (4-Benzyl-3,4-dihydro-2H-benzo[1,4]oxazin-2ylmethyl)-[3-(1H-indo-3-yl)-butyl]-amine]: the Ki on human 5-HT1A receptor amounted to 76.1 nM; on serotonin transporter, 81 nM.

The record behind these values is patent US6313114A, “3,4-Dihydro-2H-benzo[1,4]oxazinyl-methyl)-[3-(1H-indol-3yl)-alkyl]- amines” (American Home Products Corp, priority 1999, dated 2001).
